Test results reported in the supplement of paper PMC10883282.
± gives the standard deviation of the averaged measurements.

Key:
Experiment in all cases: relative viability vs DMSO control (72 h) (fraction); higher = more viable cells
A204 = test system: A204
How it was run: (§1)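 ATPLite readings, expressed as percent growth and averaged over up to triplicate wells, provided relative viability. Before reading, sarcoma cell lines seeded in 384-well plates to reach 80–90% confluence received 2.5 µl of serially diluted compound after 24 h, from source plates of 10 mM to 0.0002 mM. Plates were held 72 h at 37 °C, 5% CO2, with 0.1% DMSO as vehicle and a 5 µM positive control. The data were rescaled to 1 for full and 0 for none.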

G401 = test system: G401
How it was run: as §1

HS729 = test system: HS729
How it was run: as §1

HT1080 = test system: HT1080
How it was run: as §1

KHOS-NP = test system: KHOS-NP
How it was run: as §1

RD-ES = test system: RD-ES
How it was run: as §1

SK-ES-1 = test system: SK-ES-1
How it was run: as §1

SK-LMS-1 = test system: SK-LMS-1
How it was run: as §1

SW684 = test system: SW684
How it was run: as §1

SW872 = test system: SW872
How it was run: as §1

SW982 = test system: SW982
How it was run: as §1

VA-ES-BJ = test system: VA-ES-BJ
How it was run: as §1

CCCCCCCCCCCCCCCCCCOP(=O)([O-])OC1CC[N+](C)(C)CC1 [Perifosine]
Details | relative viability
A204, 0.00017 µM | 1.05 ± 0.051
A204, 0.00051 µM | 1.08 ± 0.022
A204, 0.00152 µM | 1.07 ± 0.08
A204, 0.00457 µM | 1.07 ± 0.032
A204, 0.01372 µM | 1.06 ± 0.069
A204, 0.04115 µM | 1.07 ± 0.061
A204, 0.1235 µM | 1.08 ± 0.067
A204, 0.3704 µM | 1.06 ± 0.087
A204, 1.111 µM | 1.03 ± 0.087
A204, 3.333 µM | 1.06 ± 0.086
A204, 10 µM | 1.08 ± 0.096
G401, 0.00017 µM | 1.057 ± 0.0047
G401, 0.00051 µM | 1.06 ± 0.011
G401, 0.00152 µM | 1.07 ± 0.0054
G401, 0.00457 µM | 1.07 ± 0.018
G401, 0.01372 µM | 1.06 ± 0.034
G401, 0.04115 µM | 1.059 ± 0.0094
G401, 0.1235 µM | 1.064 ± 0.0048
G401, 0.3704 µM | 1.06 ± 0.019
G401, 1.111 µM | 1.05 ± 0.028
G401, 3.333 µM | 1.03 ± 0.011
G401, 10 µM | 1.06 ± 0.023
HS729, 0.00017 µM | 1.06 ± 0.04
HS729, 0.00051 µM | 0.9606 ± 0.0037
HS729, 0.00152 µM | 1.01 ± 0.037
HS729, 0.00457 µM | 1.02 ± 0.037
HS729, 0.01372 µM | 0.924 ± 0.043
HS729, 0.04115 µM | 0.931 ± 0.05
HS729, 0.1235 µM | 0.987 ± 0.026
HS729, 0.3704 µM | 0.909 ± 0.051
HS729, 1.111 µM | 0.902 ± 0.014
HS729, 3.333 µM | 0.904 ± 0.042
HS729, 10 µM | 0.913 ± 0.026
HT1080, 0.00017 µM | 1.1 ± 0.034
HT1080, 0.00051 µM | 1.083 ± 0.0073
HT1080, 0.00152 µM | 1.07 ± 0.043
HT1080, 0.00457 µM | 1.06 ± 0.013
HT1080, 0.01372 µM | 1.063 ± 0.0078
HT1080, 0.04115 µM | 1.06 ± 0.046
HT1080, 0.1235 µM | 1.04 ± 0.035
HT1080, 0.3704 µM | 1.0633 ± 0.00028
HT1080, 1.111 µM | 1.04 ± 0.044
HT1080, 3.333 µM | 1.037 ± 0.0079
HT1080, 10 µM | 1.05 ± 0.025
KHOS-NP, 0.00017 µM | 1.09 ± 0.025
KHOS-NP, 0.00051 µM | 1.1 ± 0.046
KHOS-NP, 0.00152 µM | 1.099 ± 0.0076
KHOS-NP, 0.00457 µM | 1.11 ± 0.021
KHOS-NP, 0.01372 µM | 1.1 ± 0.033
KHOS-NP, 0.04115 µM | 1.08 ± 0.017
KHOS-NP, 0.1235 µM | 1.067 ± 0.0078
KHOS-NP, 0.3704 µM | 1.07 ± 0.036
KHOS-NP, 1.111 µM | 1.03 ± 0.037
KHOS-NP, 3.333 µM | 0.984 ± 0.016
KHOS-NP, 10 µM | 0.496 ± 0.058
RD-ES, 0.00017 µM | 0.985 ± 0.018
RD-ES, 0.00051 µM | 1 ± 0.014
RD-ES, 0.00152 µM | 1.03 ± 0.043
RD-ES, 0.00457 µM | 1.002 ± 0.0085
RD-ES, 0.01372 µM | 0.978 ± 0.02
RD-ES, 0.04115 µM | 0.989 ± 0.033
RD-ES, 0.1235 µM | 1.02 ± 0.028
RD-ES, 0.3704 µM | 1.01 ± 0.012
RD-ES, 1.111 µM | 0.985 ± 0.037
RD-ES, 3.333 µM | 0.983 ± 0.03
RD-ES, 10 µM | 0.996 ± 0.028
SK-ES-1, 0.00017 µM | 1.08 ± 0.056
SK-ES-1, 0.00051 µM | 1.06 ± 0.021
SK-ES-1, 0.00152 µM | 1.07 ± 0.013
SK-ES-1, 0.00457 µM | 1.02 ± 0.013
SK-ES-1, 0.01372 µM | 0.975 ± 0.013
SK-ES-1, 0.04115 µM | 0.951 ± 0.033
SK-ES-1, 0.1235 µM | 1.05 ± 0.04
SK-ES-1, 0.3704 µM | 0.996 ± 0.015
SK-ES-1, 1.111 µM | 1.05 ± 0.029
SK-ES-1, 3.333 µM | 1.02 ± 0.024
SK-ES-1, 10 µM | 1.01 ± 0.041
SK-LMS-1, 0.00017 µM | 1.01 ± 0.024
SK-LMS-1, 0.00051 µM | 1.05 ± 0.018
SK-LMS-1, 0.00152 µM | 1.02 ± 0.051
SK-LMS-1, 0.00457 µM | 1.06 ± 0.026
SK-LMS-1, 0.01372 µM | 1.01 ± 0.037
SK-LMS-1, 0.04115 µM | 0.994 ± 0.046
SK-LMS-1, 0.1235 µM | 1.02 ± 0.035
SK-LMS-1, 0.3704 µM | 1.01 ± 0.055
SK-LMS-1, 1.111 µM | 0.848 ± 0.15
SK-LMS-1, 3.333 µM | 0.836 ± 0.096
SK-LMS-1, 10 µM | 0.68 ± 0.031
SW684, 0.00017 µM | 1.08 ± 0.03
SW684, 0.00051 µM | 1.16 ± 0.045
SW684, 0.00152 µM | 1.19 ± 0.046
SW684, 0.00457 µM | 1.14 ± 0.062
SW684, 0.01372 µM | 1.15 ± 0.018
SW684, 0.04115 µM | 1.18 ± 0.071
SW684, 0.1235 µM | 1.18 ± 0.055
SW684, 0.3704 µM | 1.21 ± 0.079
SW684, 1.111 µM | 1.24 ± 0.055
SW684, 3.333 µM | 1.16 ± 0.1
SW684, 10 µM | 1.12 ± 0.056
SW872, 0.00017 µM | 1.07 ± 0.025
SW872, 0.00051 µM | 1.1 ± 0.016
SW872, 0.00152 µM | 1.05 ± 0.019
SW872, 0.00457 µM | 1.03 ± 0.017
SW872, 0.01372 µM | 0.986 ± 0.078
SW872, 0.04115 µM | 1.05 ± 0.055
SW872, 0.1235 µM | 1.04 ± 0.077
SW872, 0.3704 µM | 0.982 ± 0.028
SW872, 1.111 µM | 0.891 ± 0.033
SW872, 3.333 µM | 0.629 ± 0.035
SW872, 10 µM | 0.519 ± 0.032
SW982, 0.00017 µM | 1.02 ± 0.022
SW982, 0.00051 µM | 1.04 ± 0.031
SW982, 0.00152 µM | 1.06 ± 0.018
SW982, 0.00457 µM | 1.08 ± 0.018
SW982, 0.01372 µM | 1.1 ± 0.017
SW982, 0.04115 µM | 1.08 ± 0.034
SW982, 0.1235 µM | 1.1 ± 0.036
SW982, 0.3704 µM | 1.08 ± 0.033
SW982, 1.111 µM | 1.06 ± 0.035
SW982, 3.333 µM | 1.06 ± 0.047
SW982, 10 µM | 0.88 ± 0.026
VA-ES-BJ, 0.00017 µM | 1.08 ± 0.025
VA-ES-BJ, 0.00051 µM | 1.09 ± 0.016
VA-ES-BJ, 0.00152 µM | 1.05 ± 0.033
VA-ES-BJ, 0.00457 µM | 1.1 ± 0.033
VA-ES-BJ, 0.01372 µM | 1.07 ± 0.026
VA-ES-BJ, 0.04115 µM | 1.091 ± 0.0089
VA-ES-BJ, 0.1235 µM | 1.06 ± 0.038
VA-ES-BJ, 0.3704 µM | 1.05 ± 0.038
VA-ES-BJ, 1.111 µM | 1.05 ± 0.046
VA-ES-BJ, 3.333 µM | 1.02 ± 0.053
VA-ES-BJ, 10 µM | 0.2547 ± 0.0024
